Counter-ions that a name gives are not always drawn.

What all share (assay type): biochemical
The target in assay [1] is T1, TS in CCRF-CEM human T-lymphoblastic leukemia cells (Homo sapiens, UniProt P04818).
T1 construct: endogenous in cells; host or cells: CCRF-CEM
In words: TS enzyme inhibition assay. As to conditions: TS from CCRF-CEM cells, up to five graded concentrations; read-out: IC50 against TS. Here is the method:
The inhibitory potency against TS in CCRF-CEM human T-lymphoblastic leukemia cells was assessed by introducing up to five graded concentrations of compounds into the reaction mixture, initiating the reaction by addition of TS, and quantitating remaining TS activity.

In assay [2] the target is T2, DHFR in CCRF-CEM human leukemia cells (Homo sapiens, UniProt P00374).
T2 construct: endogenous in cells; host or cells: CCRF-CEM
T2 sequence (P00374 1-187): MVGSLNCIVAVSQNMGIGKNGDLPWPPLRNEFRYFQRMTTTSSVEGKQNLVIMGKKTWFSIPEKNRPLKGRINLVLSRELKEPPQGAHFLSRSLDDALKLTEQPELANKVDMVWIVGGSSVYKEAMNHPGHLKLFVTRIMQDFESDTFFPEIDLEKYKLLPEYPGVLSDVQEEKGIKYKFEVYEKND
Nature of the assay: DHFR enzyme inhibition assay. As to conditions: DHFR from CCRF-CEM cells, pre-incubation with NADPH 3 minutes at 37° C.

For assay [3], the target named is AICART (Homo sapiens, UniProt P31939). In words: AICART inhibition (similar tests). As to conditions: read-out: IC50 against AICART. An excerpt: (§1) The above data illustrates the selectivity of the novel antifolates in enzyme inhibition. […] As previously noted, such selectivity in activity can be useful for improving activity against specific conditions while avoiding undesirable side effects.
Sequence of AICART (P31939 whole entry): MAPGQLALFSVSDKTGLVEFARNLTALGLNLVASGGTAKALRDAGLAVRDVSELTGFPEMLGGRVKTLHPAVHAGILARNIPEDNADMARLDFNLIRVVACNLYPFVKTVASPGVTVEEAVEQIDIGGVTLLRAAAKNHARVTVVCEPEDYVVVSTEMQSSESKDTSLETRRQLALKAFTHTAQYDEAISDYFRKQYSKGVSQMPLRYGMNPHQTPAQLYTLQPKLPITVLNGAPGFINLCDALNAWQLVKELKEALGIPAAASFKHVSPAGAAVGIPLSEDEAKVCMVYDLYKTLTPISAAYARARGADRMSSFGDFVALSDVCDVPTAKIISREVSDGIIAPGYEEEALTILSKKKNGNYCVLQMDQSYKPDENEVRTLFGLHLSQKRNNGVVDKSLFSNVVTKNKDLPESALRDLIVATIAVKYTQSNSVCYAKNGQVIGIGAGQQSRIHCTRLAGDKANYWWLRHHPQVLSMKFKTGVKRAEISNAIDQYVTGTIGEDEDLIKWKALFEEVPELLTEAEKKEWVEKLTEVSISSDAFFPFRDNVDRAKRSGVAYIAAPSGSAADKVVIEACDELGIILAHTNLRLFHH

For assay [4], the target named is T3, GARFT (Homo sapiens, UniProt P22102).
T3 sequence (P22102 1-1010): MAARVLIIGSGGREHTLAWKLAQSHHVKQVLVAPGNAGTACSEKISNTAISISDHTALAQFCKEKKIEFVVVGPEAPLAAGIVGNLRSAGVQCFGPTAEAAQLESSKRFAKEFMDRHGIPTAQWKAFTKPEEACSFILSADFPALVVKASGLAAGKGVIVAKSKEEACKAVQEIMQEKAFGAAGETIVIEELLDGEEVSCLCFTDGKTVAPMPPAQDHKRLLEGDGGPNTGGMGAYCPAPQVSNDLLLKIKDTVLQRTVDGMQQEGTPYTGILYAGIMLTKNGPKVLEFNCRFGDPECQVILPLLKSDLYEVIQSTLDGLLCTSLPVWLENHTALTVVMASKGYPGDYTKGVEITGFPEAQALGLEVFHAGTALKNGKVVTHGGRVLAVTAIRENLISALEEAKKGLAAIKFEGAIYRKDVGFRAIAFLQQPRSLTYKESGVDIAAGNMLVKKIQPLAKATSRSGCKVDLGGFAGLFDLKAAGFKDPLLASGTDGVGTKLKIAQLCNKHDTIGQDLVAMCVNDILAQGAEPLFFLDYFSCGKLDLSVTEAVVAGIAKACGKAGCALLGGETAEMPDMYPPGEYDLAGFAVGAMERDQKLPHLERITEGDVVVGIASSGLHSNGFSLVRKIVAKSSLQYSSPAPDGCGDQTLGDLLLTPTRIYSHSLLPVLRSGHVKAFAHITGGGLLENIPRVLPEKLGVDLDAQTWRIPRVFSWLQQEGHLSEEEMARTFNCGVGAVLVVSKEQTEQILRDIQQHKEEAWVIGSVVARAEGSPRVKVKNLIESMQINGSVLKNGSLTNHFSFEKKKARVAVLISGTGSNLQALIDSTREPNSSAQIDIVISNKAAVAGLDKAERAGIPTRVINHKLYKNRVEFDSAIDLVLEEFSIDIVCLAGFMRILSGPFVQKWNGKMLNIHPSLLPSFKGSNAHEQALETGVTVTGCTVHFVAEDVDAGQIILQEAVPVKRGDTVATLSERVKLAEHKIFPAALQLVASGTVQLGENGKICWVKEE
In words: GARFT inhibition (similar tests). As to conditions: read-out: IC50 against GARFT.
From the text: as §1

T1 sequence (P04818 whole entry): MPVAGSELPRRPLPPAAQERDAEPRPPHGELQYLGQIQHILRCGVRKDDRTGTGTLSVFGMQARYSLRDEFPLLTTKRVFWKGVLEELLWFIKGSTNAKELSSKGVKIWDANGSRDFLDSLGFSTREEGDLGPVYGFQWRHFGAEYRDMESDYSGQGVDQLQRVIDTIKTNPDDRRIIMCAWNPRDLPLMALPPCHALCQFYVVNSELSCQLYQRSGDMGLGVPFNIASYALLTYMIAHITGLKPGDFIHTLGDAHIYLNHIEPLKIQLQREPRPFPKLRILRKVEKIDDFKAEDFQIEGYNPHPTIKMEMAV

The IC50 is the concentration that inhibits the measured activity by half. For the compound `C=C(CC(NC(=O)c1ccc(CCc2ccc3nc(N)nc(N)c3c2)cc1)C(=O)O)C(=O)O` (stereo not shown) [Mobiltrex, 2-{4-[2-(2,4-diamino-quinazolin-6-yl)-ethyl] -benzoylamino}-4-methylidene-pentanedioic acid, reference compound], the IC50 amounted to 8000 nM in assay [1] and 1.1 nM in assay [2].

Consider `C=C(C[C@H](NC(=O)c1ccc(CCc2c[nH]c3nc(N)nc(N)c23)cc1)C(=O)O)C(=O)O` [CHL1007, (S)-N-{4-[2-(2,4-diamino-7H-pyrrolo[2,3-d]pyrimidin-5-yl)ethyl]benzoyl}-4-methylene-L-glutamic acid disodium salt], for which the IC50 in assay [2] came out at 5.2 nM.

Consider `C=C(CC(NC(=O)c1ccc(CCc2c[nH]c3nc(N)nc(N)c23)cc1)C(=O)O)C(=O)O` (racemic) [CHL-003, N-{4-[2-(2,4-diamino-7H-pyrrolo[2,3-d]pyrimidin-5-yl)ethyl]benzoyl}-4-methylene-glutamic acid], for which the IC50 in assay [1] is greater than 50000 nM; in assay [2] it was 12.5 nM; in assay [3], greater than 50000 nM; in assay [4], greater than 50000 nM.

The values above are taken from US7951812B2, “Substituted pyrrolo[2,3-d]pyrimidines as antifolates” (Chelsea Therapeutics, Inc., priority 2007, dated 2011).
